Assay results taken from patent publication US20250051337A1 (priority 2021, published 2025).

How the values were obtained:
STK3 [1] = biological target: T1, STK3 (Homo sapiens (Human), UniProt Q13188); experiment: Thermal shift assay (ThermoFluor differential scanning fluorimetry); type: binding; settings: read-out: ΔTm
Method: Temperature-dependent protein unfolding profiles were measured using a Real-Time PCR Mx3005p machine (Stratagene: San Diego, CA, USA). Data evaluation and melting temperature calculation were performed using Protein Thermal Shift™ Software v1.2.
To further evaluate binding of these compounds to STK3/4, differential scanning fluorimetry (protein thermal shift using ThermoFluor technology) assay was used to benchmark the capacity to stabilize the kinase domain. The melting temperature (Tm) of STK3 or STK4 was measured in the presence of vehicle (DMSO) or 6, 11 or 23.

[2] = test system: YAP/TAZ-TEAD activity (8×GTIIC-luciferase) in HEK293 cells; experiment: YAP-TAZ-TEAD luciferase assay; type: cell-based; settings: 10 μM, 48 h, vs DMSO
Method: 8×GTIIC-luciferase was a gift from Stefano Piccolo (Addgene plasmid #34615, http://n2t.net/addgene: 34615: RRID: Addgene_34615). HEK293 cells were transfected with 8×GTIIC-luciferase plasmid and control Renilla luciferase plasmid using jetPRIME transfection reagent (Polyplus-transfection RSA: New York, NY. USA) for 24 h and cultured in Dulbeco's Modified Eagle Media (DMEM) Glutamax supplemented with 10% Fetal Bovine Serum (FBS), antibiotic/antimycotic, and sodium pyruvate (Gibco. Thermo FisherScientific: Waltham. MA. USA). The transfected cells were treated with 10 μM compound in triplicate and incubated for 48 h at 37° C. Firefly and Renilla luminescence were detected with a Dual-Glo Luciferase Assay System (Promega #E2920) according to the manufacturer's recommendations. The ratio of firefly to Renilla luminescence was calculated for each well and normalized to the ratio in control cells incubated with DMSO.
STK3/4 can negatively regulate the activity of the YAP/TAZ-TEAD protein complex and, accordingly, inactivation of these kinases reduces the transcription of YAP/TAZ-TEAD target genes. […] The results confirmed the intracellular on-target activity of our potent compounds for inhibiting STK3 and STK4 activity and targeting gene expression in the Hippo signaling pathway.

STK3 [3] = biological target: T1, STK3; experiment: ADP-Glo kinase assay, STK3; type: biochemical; settings: ADP-Glo, 50 μM ATP; read-out: STK3 IC50
How it was run: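 Full-length recombinant human STK3 (50 ng) phosphorylated 250 μg/mL myelin basic protein, and full-length STK4 (50 ng) phosphorylated 300 μg/mL Axltide, both at 50 μM ATP; ADP formed detected by ADP-Glo. Three experiments, each in triplicate.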

[4] = In vivo plasma and liver concentrations, 20 mg/kg intraperitoneal; settings: female, C57BL/6J, mouse, ip, 20 mg/kg
Method: All animal procedures were approved by the Sanford Burnham Prebys Medical Discovery Institute Institutional Animal Care and Use Committee and were performed according to the NIH guidelines for the Care and Use of Laboratory Animals. Adult female C57BL/6J mice were purchased from Jackson Laboratories and housed with free access to food and water on a 12 h light/dark cycle. Compounds were formulated in 5% DMSO, 10% Tween-80, and 85% H2O and injected intraperitoneally at 10 or 20 mg/kg. Blood samples were collected retro-orbitally at the indicated times and plasma was prepared by centrifugation. Livers were collected post mortem at the indicated times.
For quantification of compound, plasma samples were extracted with acetonitrile: water 4:1 with 0.1% formic acid containing indomethacin as an internal standard. Samples were centrifuged and the supernatants were diluted with acetonitrile: water and analyzed by LC-MS/MS using a Shimadzu Nexera X2 High-performance liquid chromatography (HPLC) (Shimadzu Scientific Instruments: Kyoto, Japan) coupled to an AB Sciex 6500 QTRAP (AB Sciex LLC: Toronto, Canada).
Adult female C57BL/6 mice (n=3/group) were intraperitoneally injected with vehicle or test compound (20 mg/kg), and blood samples and livers were collected at 30 min and 1 h post-injection, respectively. Plasma concentrations of all 13 compounds were >1.4 μM at 30 min after injection, and 10 compounds had liver concentrations >1.0 μM at 1 h after injection, as measured by LC-MS/MS, with particularly high plasma concentrations obtained with compounds 11 (15.9 μM), 16 (11.6 μM) and 105 (8.7 μM) (Table 5). To evaluate target engagement in vivo, the total and phosphorylated MOB1 levels in livers collected at 1 h post-injection was examined.
Tween 80 and water and were administered to mice by intraperitoneal injection. Blood samples and livers were collected at 30 min and 1 h post-dose, respectively. Plasma concentrations and relative pMOB1 levels were determined by LC-MS/MS and western blot analysis, respectively. (n=3).

STK3 [5] = biological target: T1, STK3; experiment: NanoBRET intracellular kinase assay, STK3; type: cell-based; settings: NanoBRET, transfected HEK293 cells, 2 h; read-out: STK3: IC50
Method: Full-length STK3, STK4, and LRRK2 kinase was cloned in-frame with a C-terminal NanoLuc-fusion (Promega: Madison, WI, USA) and the plasmid was transfected into HEK293T cells using FuGENE HD (Promega, E2312). […] After 2 h at 37° C. in a 5% CO2 atmosphere, NanoBRET NanoGlo Substrate+Extra-cellular NanoLuc Inhibitor (Promega, N2540) was added, and filtered luminescence was measured on a PHERAstar plate reader (BMG Labtech; Ortenberg, Germany) equipped with a lumi-nescence filter pair (450 nm BP filter (donor) and 610 nm LP filter (acceptor)).
This assay measured the apparent affinity of test compounds by competitive displacement of the NanoBRET™ tracer, reversibly bound to a NanoLuc® luciferase-kinase fusion in cells. To evaluate potential off-target activity of the inhibitors, the inhibition of LRRK2 in live cells by the STK3/4 inhibitors compounds described herein were measured. […] A 50 nM tracer and these compounds were added to cells and incubated for 2 h.

LRRK2 = LRRK2 (Homo sapiens (Human), UniProt Q5S007); experiment: NanoBRET intracellular kinase assay, LRRK2; type: cell-based; settings: transfected HEK293 cells, 2 h
LRRK2, sequence (Q5S007 whole entry, species assumed, the tested form may be a part): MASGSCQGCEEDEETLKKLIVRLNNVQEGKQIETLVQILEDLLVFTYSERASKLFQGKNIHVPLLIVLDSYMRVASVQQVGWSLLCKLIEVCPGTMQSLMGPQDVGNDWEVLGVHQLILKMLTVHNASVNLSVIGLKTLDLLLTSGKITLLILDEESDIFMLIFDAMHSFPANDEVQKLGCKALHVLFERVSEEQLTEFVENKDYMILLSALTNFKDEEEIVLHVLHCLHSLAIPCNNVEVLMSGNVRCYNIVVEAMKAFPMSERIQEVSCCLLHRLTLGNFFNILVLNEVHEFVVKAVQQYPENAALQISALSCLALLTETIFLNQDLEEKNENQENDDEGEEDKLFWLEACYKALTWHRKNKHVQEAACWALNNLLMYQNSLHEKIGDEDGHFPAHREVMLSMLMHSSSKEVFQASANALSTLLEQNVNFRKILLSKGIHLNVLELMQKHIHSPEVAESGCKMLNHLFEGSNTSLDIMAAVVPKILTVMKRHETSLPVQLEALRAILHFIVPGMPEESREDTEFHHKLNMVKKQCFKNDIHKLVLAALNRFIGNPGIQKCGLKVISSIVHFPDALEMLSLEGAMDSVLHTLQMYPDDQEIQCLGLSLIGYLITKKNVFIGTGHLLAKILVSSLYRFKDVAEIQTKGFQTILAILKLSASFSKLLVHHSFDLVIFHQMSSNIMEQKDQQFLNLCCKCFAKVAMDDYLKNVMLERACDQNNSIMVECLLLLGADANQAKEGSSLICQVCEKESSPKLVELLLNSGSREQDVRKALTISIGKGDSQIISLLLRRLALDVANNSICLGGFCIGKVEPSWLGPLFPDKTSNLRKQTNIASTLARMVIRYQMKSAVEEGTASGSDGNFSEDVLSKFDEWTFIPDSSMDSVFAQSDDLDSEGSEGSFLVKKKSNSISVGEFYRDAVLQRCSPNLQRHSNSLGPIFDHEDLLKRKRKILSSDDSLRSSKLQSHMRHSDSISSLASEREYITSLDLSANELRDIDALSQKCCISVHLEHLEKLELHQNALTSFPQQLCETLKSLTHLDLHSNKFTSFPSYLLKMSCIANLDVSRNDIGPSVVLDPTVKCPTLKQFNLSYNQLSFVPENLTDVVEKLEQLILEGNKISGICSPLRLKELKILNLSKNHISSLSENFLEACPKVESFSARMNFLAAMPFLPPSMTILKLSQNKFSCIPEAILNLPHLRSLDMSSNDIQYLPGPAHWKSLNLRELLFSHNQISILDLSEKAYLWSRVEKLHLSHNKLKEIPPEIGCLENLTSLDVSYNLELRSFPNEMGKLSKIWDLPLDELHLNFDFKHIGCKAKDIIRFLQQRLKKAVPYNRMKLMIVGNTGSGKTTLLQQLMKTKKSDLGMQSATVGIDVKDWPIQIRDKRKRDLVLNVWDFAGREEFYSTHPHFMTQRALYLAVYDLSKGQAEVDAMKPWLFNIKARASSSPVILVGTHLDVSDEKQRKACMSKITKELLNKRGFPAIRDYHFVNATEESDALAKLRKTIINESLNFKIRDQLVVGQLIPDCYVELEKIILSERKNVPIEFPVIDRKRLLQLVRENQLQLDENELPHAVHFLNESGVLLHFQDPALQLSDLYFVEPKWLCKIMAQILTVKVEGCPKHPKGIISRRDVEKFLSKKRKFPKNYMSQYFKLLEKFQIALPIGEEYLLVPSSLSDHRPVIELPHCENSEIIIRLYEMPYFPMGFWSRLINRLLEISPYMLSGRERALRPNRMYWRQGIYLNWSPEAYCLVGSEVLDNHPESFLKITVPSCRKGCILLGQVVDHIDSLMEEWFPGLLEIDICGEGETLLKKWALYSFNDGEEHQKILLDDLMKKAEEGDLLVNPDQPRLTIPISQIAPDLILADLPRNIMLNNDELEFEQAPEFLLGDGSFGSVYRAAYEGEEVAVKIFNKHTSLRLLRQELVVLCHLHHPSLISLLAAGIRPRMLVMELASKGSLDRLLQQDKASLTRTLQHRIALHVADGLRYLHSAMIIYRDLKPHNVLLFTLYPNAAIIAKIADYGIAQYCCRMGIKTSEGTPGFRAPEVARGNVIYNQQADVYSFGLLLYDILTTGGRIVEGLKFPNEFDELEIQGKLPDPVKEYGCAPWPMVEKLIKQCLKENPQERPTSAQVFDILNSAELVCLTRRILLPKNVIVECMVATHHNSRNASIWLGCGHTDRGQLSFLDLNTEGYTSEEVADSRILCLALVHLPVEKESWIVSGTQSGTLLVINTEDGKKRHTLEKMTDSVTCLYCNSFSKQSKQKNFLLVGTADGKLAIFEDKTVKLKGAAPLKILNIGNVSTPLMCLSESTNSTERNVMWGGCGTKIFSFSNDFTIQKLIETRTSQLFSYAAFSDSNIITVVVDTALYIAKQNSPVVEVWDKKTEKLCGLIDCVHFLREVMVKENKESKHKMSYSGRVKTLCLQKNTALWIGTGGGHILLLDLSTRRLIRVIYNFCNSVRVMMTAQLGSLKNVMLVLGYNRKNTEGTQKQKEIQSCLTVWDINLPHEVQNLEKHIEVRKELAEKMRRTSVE
Method: Full-length STK3, STK4, and LRRK2 kinase was cloned in-frame with a C-terminal NanoLuc-fusion (Promega: Madison, WI, USA) and the plasmid was transfected into HEK293T cells using FuGENE HD (Promega, E2312). After 20 h, transfected cells were mixed with inhibitors and 50 nM NanoBRET Kinase Tracer K10 (Promega) and reseeded at a density of 2× 10^5 cells/mL in Opti-Minimal Essential Medium (MEM) without phenol red (Life Technologies; Carlsbad, CA, USA) in 384-well plates (Greiner 781-207; Kremsmunster, Austria). After 2 h at 37° C. in a 5% CO2 atmosphere, NanoBRET NanoGlo Substrate+Extra-cellular NanoLuc Inhibitor (Promega, N2540) was added, and filtered luminescence was measured on a PHERAstar plate reader (BMG Labtech; Ortenberg, Germany) equipped with a lumi-nescence filter pair (450 nm BP filter (donor) and 610 nm LP filter (acceptor)).
To confirm cellular potency for compounds described herein, the […] were used to detect engagement of STK3 and STK4 in live cells using the NanoBRET™ intracellular kinase assay, marking the first report of a NanoBRET assay for STK3 and STK4. This assay measured the apparent affinity of test compounds by competitive displacement of the NanoBRET™ tracer, reversibly bound to a NanoLuc® luciferase-kinase fusion in cells. To evaluate potential off-target activity of the inhibitors, the inhibition of LRRK2 in live cells by the STK3/4 inhibitors compounds described herein were measured. Cultured HEK293 cells were either transfected with NanoLuc®-STK3 fusion vector, NanoLuc®-STK4 fusion, or with NanoLuc®-LRRK2 vector for 24 h. A 50 nM tracer and these compounds were added to cells and incubated for 2 h. These compounds tested in the assays decreased the NanoBRET™ signal for both STK3 and STK4 at varying potencies and confirming cellular target engagement of STK3/4.

[6] = test system: ULK1/2 and Aurora kinases; settings: including inhibition of ULK1/2 and Aurora kinases; cited from earlier work

T1 sequence (Q13188 whole entry): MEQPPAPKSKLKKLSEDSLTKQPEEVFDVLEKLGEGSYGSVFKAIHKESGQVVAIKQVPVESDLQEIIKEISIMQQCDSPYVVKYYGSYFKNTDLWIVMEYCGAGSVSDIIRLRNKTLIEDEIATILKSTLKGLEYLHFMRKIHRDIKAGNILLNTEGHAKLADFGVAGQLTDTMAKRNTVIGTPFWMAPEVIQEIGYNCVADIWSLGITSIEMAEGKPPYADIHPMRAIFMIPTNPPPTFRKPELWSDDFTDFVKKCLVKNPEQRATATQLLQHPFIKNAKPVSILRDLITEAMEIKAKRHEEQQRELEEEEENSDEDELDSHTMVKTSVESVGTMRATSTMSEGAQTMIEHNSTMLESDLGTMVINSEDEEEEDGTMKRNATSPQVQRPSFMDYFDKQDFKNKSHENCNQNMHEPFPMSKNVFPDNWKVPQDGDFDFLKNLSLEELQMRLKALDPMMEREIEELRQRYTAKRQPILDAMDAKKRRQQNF

SMILES | ΔTm at 10 µM (STK3 [1]) [°C] | YAP/TAZ-TEAD activity (luciferase reporter) [2] | IC50 (STK3 [3]) [µM] | concentration at 30 min [4] [µM] | concentration at 1 h [4] [µM] | IC50 (STK3 [5]) [µM] | IC50 (LRRK2) [µM] | off-target activity in vitro [6]
Fc1cccc(-c2c[nH]c3ncnc(N4CCOCC4)c23)c1 [Compound 7, 4-(5-(3-Fluorophenyl)-7H-pyrrolo[2,3-d]pyrimidin-4-yl)morpholine] | 8.4 | marked increase | < 1 | 6 | 14.9 | < 1 | ≤ 1 | 
CN1C(=O)c2sccc2N(C)c2nc(Nc3ccc(S(N)(=O)=O)cc3)ncc21 [XMU-MP-1] |  |  |  |  |  |  |  | notable off-target activity
